# Source: patent US7029886B1, “Enzymatic substrate, synthesis method and uses” (Bio Merieux, priority 1999, dated 2006)
# Marks after values point to notes of the source that are not given here.
# Key:
# E. cloacae (NCTC, 11936) [1] = test: CBR-gal in a liquid medium, pink coloration over time (Table V); assay type: cell-based; parameters: key: — signifies a lack of coloration, even after 24 hours
# Procedure: (§1) The CBR-gal substrate is tested in a liquid medium, at various concentrations from 0.5 mg/ml to 0.0078 mg/ml. The liquid reaction medium into which the substrate is incorporated is composed of a phosphate buffer, pH 7.4, containing 0.5% of nutrient broth and 0.5% of NaCl. 30 microliters/ml of IPTG are added to the medium for all the substrate concentrations. The strains tested are E. coli (NCTC, 10418), K. pneumoniae (NCTC, 10896), P. rettgeri (NCTC, 7475), E. cloacae (NCTC, 11936), S. marcescens (NCTC, 10211) and S. typhimurium (NCTC, 74), with an inoculum of 0.5 McFarland.
# E. coli (NCTC, 10418) [2] = test: as above; assay type: cell-based; parameters: key: — signifies a lack of coloration, even after 24 hours
# Procedure: as §1
# [3] = test system: K. pneumoniae (NCTC, 10896); test: as above; assay type: cell-based; parameters: key: — signifies a lack of coloration, even after 24 hours
# Procedure: as §1
# P. rettgeri (NCTC, 7475) = test: as above; assay type: cell-based; parameters: key: — signifies a lack of coloration, even after 24 hours
# Procedure: as §1
# [4] = test system: S. marcescens (NCTC, 10211); test: as above; assay type: cell-based; parameters: key: — signifies a lack of coloration, even after 24 hours
# Procedure: as §1
# [5] = test system: S. typhimurium (NCTC, 74); test: as above; assay type: cell-based; parameters: key: — signifies a lack of coloration, even after 24 hours
# Procedure: as §1
# E. cloacae (NCTC, 11936) [6] = test: CBR-gal in Columbia agar (solid medium); assay type: cell-based; settings: 2, 6, 10 and 20 mg/100 ml, 37° C. overnight
# Procedure: (§2) The CBR-gal substrate is incorporated into a Columbia agar at the following concentrations: 2, 6, 10 and 20 mg/100 ml, and the medium thus prepared is distributed into dishes. Each dish is inoculated with the following organisms: E. coli (NCTC, 10418), K. pneumoniae (NCTC, 10896), P. rettgeri (NCTC, 7475), E. cloacae (NCTC, 11936), S. marcescens (NCTC, 10211) and S. typhimurium (NCTC, 74). IPTG is incorporated into all these media, at a concentration of 3 mg per 100 ml of Columbia agar. All the dishes are incubated at 37° C. overnight.
# E. coli (NCTC, 10418) [7] = test: CBR-gal in Columbia agar (solid medium); assay type: cell-based; settings: 2, 6, 10 and 20 mg/100 ml, 37° C. overnight
# Procedure: as §2
# [8] = test system: K. pneumoniae (NCTC, 10896); test: CBR-gal in Columbia agar (solid medium); assay type: cell-based; settings: 2, 6, 10 and 20 mg/100 ml, 37° C. overnight
# Procedure: as §2
# [9] = test system: S. marcescens (NCTC, 10211); test: CBR-gal in Columbia agar (solid medium); assay type: cell-based; settings: 2, 6, 10 and 20 mg/100 ml, 37° C. overnight
# Procedure: as §2
# [10] = test system: E. coli, K. pneumoniae, P. rettgeri, E. cloacae, S. marcescens and S. typhimurium; assay type: cell-based; settings: Columbia agar, 37° C. overnight
# Procedure: as §2
# E. coli 115 = test: Influence of the incubation atmosphere on revelation of β-D-galactosidase (Table IV)
# E. coli 206 = test: as above
# S. marcescens 042 = test: as above; settings: 48 H
# E. cloacae 061 = test: as above
# E. faecium 255 = test: as above
structure (smiles),measurement,setting,value
"O=c1cc2oc3cc(OC4OC(CO)C(O)C(O)C4O)c(Cl)cc3nc-2c2ccccc12 [CBR-gal, 8-chloro-1,2-benzoresorufin-β-D-galactoside]",time until pink coloration,"E. cloacae (NCTC, 11936) [1]; CBR-gal substrate 0.0078 mg/ml",—
same,time until pink coloration,"E. cloacae (NCTC, 11936) [1]; CBR-gal substrate 0.0156 mg/ml",—
same,time until pink coloration,"E. cloacae (NCTC, 11936) [1]; CBR-gal substrate 0.0313 mg/ml",24 h
same,time until pink coloration,"E. cloacae (NCTC, 11936) [1]; CBR-gal substrate 0.0625 mg/ml",4 h
same,time until pink coloration,"E. cloacae (NCTC, 11936) [1]; CBR-gal substrate 0.125 mg/ml",4 h
same,time until pink coloration,"E. cloacae (NCTC, 11936) [1]; CBR-gal substrate 0.25 mg/ml",2 h
same,time until pink coloration,"E. cloacae (NCTC, 11936) [1]; CBR-gal substrate 0.5 mg/ml",2 h
same,time until pink coloration,"E. coli (NCTC, 10418) [2]; CBR-gal substrate 0.0078 mg/ml",—
same,time until pink coloration,"E. coli (NCTC, 10418) [2]; CBR-gal substrate 0.0156 mg/ml",—
same,time until pink coloration,"E. coli (NCTC, 10418) [2]; CBR-gal substrate 0.0313 mg/ml",24 h
same,time until pink coloration,"E. coli (NCTC, 10418) [2]; CBR-gal substrate 0.0625 mg/ml",4 h
same,time until pink coloration,"E. coli (NCTC, 10418) [2]; CBR-gal substrate 0.125 mg/ml",4 h
same,time until pink coloration,"E. coli (NCTC, 10418) [2]; CBR-gal substrate 0.25 mg/ml",2 h
same,time until pink coloration,"E. coli (NCTC, 10418) [2]; CBR-gal substrate 0.5 mg/ml",2* hours
same,time until pink coloration,[3]; CBR-gal substrate 0.0078 mg/ml,—
same,time until pink coloration,[3]; CBR-gal substrate 0.0156 mg/ml,—
same,time until pink coloration,[3]; CBR-gal substrate 0.0313 mg/ml,24 h
same,time until pink coloration,[3]; CBR-gal substrate 0.0625 mg/ml,4 h
same,time until pink coloration,[3]; CBR-gal substrate 0.125 mg/ml,4 h
same,time until pink coloration,[3]; CBR-gal substrate 0.25 mg/ml,2 h
same,time until pink coloration,[3]; CBR-gal substrate 0.5 mg/ml,2 h
same,time until pink coloration,"P. rettgeri (NCTC, 7475); CBR-gal substrate 0.0078 mg/ml",—
same,time until pink coloration,"P. rettgeri (NCTC, 7475); CBR-gal substrate 0.0156 mg/ml",—
same,time until pink coloration,"P. rettgeri (NCTC, 7475); CBR-gal substrate 0.0313 mg/ml",—
same,time until pink coloration,"P. rettgeri (NCTC, 7475); CBR-gal substrate 0.0625 mg/ml",—
same,time until pink coloration,"P. rettgeri (NCTC, 7475); CBR-gal substrate 0.125 mg/ml",—
same,time until pink coloration,"P. rettgeri (NCTC, 7475); CBR-gal substrate 0.25 mg/ml",—
same,time until pink coloration,"P. rettgeri (NCTC, 7475); CBR-gal substrate 0.5 mg/ml",—
same,time until pink coloration,[4]; CBR-gal substrate 0.0078 mg/ml,—
same,time until pink coloration,[4]; CBR-gal substrate 0.0156 mg/ml,—
same,time until pink coloration,[4]; CBR-gal substrate 0.0313 mg/ml,24 h
same,time until pink coloration,[4]; CBR-gal substrate 0.0625 mg/ml,24 h
same,time until pink coloration,[4]; CBR-gal substrate 0.125 mg/ml,24 h
same,time until pink coloration,[4]; CBR-gal substrate 0.25 mg/ml,24 h
same,time until pink coloration,[4]; CBR-gal substrate 0.5 mg/ml,24 h
same,time until pink coloration,[5]; CBR-gal substrate 0.0078 mg/ml,—
same,time until pink coloration,[5]; CBR-gal substrate 0.0156 mg/ml,—
same,time until pink coloration,[5]; CBR-gal substrate 0.0313 mg/ml,—
same,time until pink coloration,[5]; CBR-gal substrate 0.0625 mg/ml,—
same,time until pink coloration,[5]; CBR-gal substrate 0.125 mg/ml,—
same,time until pink coloration,[5]; CBR-gal substrate 0.25 mg/ml,—
same,time until pink coloration,[5]; CBR-gal substrate 0.5 mg/ml,—
same,coloration of the bacterial colony,"E. cloacae (NCTC, 11936) [6]",pink coloration
same,coloration of the bacterial colony,"E. coli (NCTC, 10418) [7]",pink coloration
same,coloration of the bacterial colony,[8],pink coloration
same,coloration of the bacterial colony,[9],pink coloration
same,optimum concentration to obtain a clearly visible pink coloration without any background noise,[10],around 10 mg/100 ml
"OC[C@H]1O[C@@H](Oc2c[nH]c3ccc(Br)c(Cl)c23)[C@H](O)[C@@H](O)[C@H]1O [X-Gal, reference compound]",intensity of coloration (arbitrary scale based on a visual observation),"E. coli 115; 24 H, AE (aerobiosis)",3*
same,intensity of coloration (arbitrary scale based on a visual observation),"E. coli 115; 24 H, CO2",2
same,intensity of coloration (arbitrary scale based on a visual observation),"E. coli 115; 24 H, MAP (microaerophily)",2
same,intensity of coloration (arbitrary scale based on a visual observation),"E. coli 115; 48 H, AE (aerobiosis)",3
same,intensity of coloration (arbitrary scale based on a visual observation),"E. coli 115; 48 H, ANA (anaerobiosis)",1
same,intensity of coloration (arbitrary scale based on a visual observation),"E. coli 115; 48 H, CO2",2
same,intensity of coloration (arbitrary scale based on a visual observation),"E. coli 115; 48 H, MAP (microaerophily)",2
same,intensity of coloration (arbitrary scale based on a visual observation),"E. coli 206; 24 H, AE (aerobiosis)",3
same,intensity of coloration (arbitrary scale based on a visual observation),"E. coli 206; 24 H, ANA (anaerobiosis)",1
same,intensity of coloration (arbitrary scale based on a visual observation),"E. coli 206; 24 H, CO2",3
same,intensity of coloration (arbitrary scale based on a visual observation),"E. coli 206; 24 H, MAP (microaerophily)",1
same,intensity of coloration (arbitrary scale based on a visual observation),"E. coli 206; 48 H, AE (aerobiosis)",3
same,intensity of coloration (arbitrary scale based on a visual observation),"E. coli 206; 48 H, ANA (anaerobiosis)",1
same,intensity of coloration (arbitrary scale based on a visual observation),"E. coli 206; 48 H, CO2",3
same,intensity of coloration (arbitrary scale based on a visual observation),"E. coli 206; 48 H, MAP (microaerophily)",1
same,intensity of coloration (arbitrary scale based on a visual observation),S. marcescens 042; AE (aerobiosis),1
same,intensity of coloration (arbitrary scale based on a visual observation),S. marcescens 042; CO2,2
same,intensity of coloration (arbitrary scale based on a visual observation),S. marcescens 042; MAP (microaerophily),1
same,intensity of coloration (arbitrary scale based on a visual observation),"E. cloacae 061; 24 H, AE (aerobiosis)",2
same,intensity of coloration (arbitrary scale based on a visual observation),"E. cloacae 061; 24 H, CO2",2
same,intensity of coloration (arbitrary scale based on a visual observation),"E. cloacae 061; 24 H, MAP (microaerophily)",1
same,intensity of coloration (arbitrary scale based on a visual observation),"E. cloacae 061; 48 H, AE (aerobiosis)",2
same,intensity of coloration (arbitrary scale based on a visual observation),"E. cloacae 061; 48 H, ANA (anaerobiosis)",1
same,intensity of coloration (arbitrary scale based on a visual observation),"E. cloacae 061; 48 H, CO2",2
same,intensity of coloration (arbitrary scale based on a visual observation),"E. cloacae 061; 48 H, MAP (microaerophily)",1
same,intensity of coloration (arbitrary scale based on a visual observation),"E. faecium 255; 24 H, AE (aerobiosis)",1
same,intensity of coloration (arbitrary scale based on a visual observation),"E. faecium 255; 48 H, AE (aerobiosis)",3
same,intensity of coloration (arbitrary scale based on a visual observation),"E. faecium 255; 48 H, CO2",1
same,intensity of coloration (arbitrary scale based on a visual observation),"E. faecium 255; 48 H, MAP (microaerophily)",1
